For 1 molecule, Activity and MIC results are on record in ChEMBL document CHEMBL5614413, “Design, synthesis and biological evaluation of amphiphilic benzopyran derivatives as potent antibacterial agents against multidrug-resistant bacteria” (Eur J Med Chem, 2024).

In brackets after ≈: the same amount, converted by molar mass. Activity calls are given as the source filed them. The rule behind the calls is not given here. Some results are limits rather than exact numbers.

Broadly, the MIC is the lowest concentration that inhibits growth of the organism. A lower MIC goes with greater potency.

The test system of experiment [1] is Staphylococcus aureus. Kind of experiment: Antibacterial activity against methicillin-resistant Staphylococcus aureus ATCC 43300 infected in sepsis mouse model assessed as decrease in IL-6 level in blood at 5 mg/kg pre-infected with bacteria for 1 hrs followed by continuous compound administration at 12 hrs intervals for 2 days. Conditions: time 2.0 day. Format: functional, organism-based.

The subject of experiment [2] is Staphylococcus aureus. Kind of experiment: Antibacterial activity against methicillin-resistant Staphylococcus aureus ATCC 43300 infected in sepsis mouse model assessed as decrease in TNF-alpha level in blood at 5 mg/kg pre-infected with bacteria for 1 hrs followed by continuous compound administration at 12 hrs intervals for 2 days. Conditions: time 2.0 day. Type of experiment: functional, organism-based.

Another experiment relates to Bacillus subtilis. Briefly: Antibacterial activity against penicillin-susceptible Bacillus subtilis ATCC 9372. Format: functional.
Another experiment concerns Enterococcus faecalis. Briefly: Antibacterial activity against vancomycin-susceptible Enterococcus faecalis ATCC 29212. Type of experiment: functional.
In the next experiment the test system is Klebsiella pneumoniae. Briefly: Antibacterial activity against Klebsiella pneumoniae ATCC 10031. Format: functional.
In a further experiment the test system is Acinetobacter baumannii. Briefly: Antibacterial activity against Acinetobacter baumannii ATCC 19606. Format: functional.
The next experiment has as its system Escherichia coli. Kind of experiment: Antibacterial activity against penicillin-susceptible Escherichia coli ATCC 25922. Type of experiment: functional.
In a further experiment the test system is Pseudomonas aeruginosa. Kind of experiment: Antibacterial activity against penicillin-susceptible Pseudomonas aeruginosa ATCC 27853. Type of experiment: functional.
Experiment [3] deals with Staphylococcus aureus. Kind of experiment: Antibacterial activity against methicillin-resistant Staphylococcus aureus ATCC 43300 infected in sepsis mouse model assessed as reduction in bacterial load in blood at 5 mg/kg pre-infected with bacteria for 1 hrs followed by continuous compound administration at 12 hrs intervals for 2 days (reference value: 3.69 log10CFU/ml). Type of experiment: functional. Conditions: time 2 day.

In experiment [4] the test system is Staphylococcus aureus. Briefly: Antibacterial activity against methicillin-resistant Staphylococcus aureus ATCC 43300 infected in sepsis mouse model assessed as reduction in bacterial load in liver at 5 mg/kg pre-infected with bacteria for 1 hrs followed by continuous compound administration at 12 hrs intervals for 2 days (reference value: 7.16 log10CFU/g). Type of experiment: functional. Conditions: time 2 day.

Experiment [5] concerns Staphylococcus aureus. Briefly: Antibacterial activity against methicillin-resistant Staphylococcus aureus ATCC 43300 infected in sepsis mouse model assessed as reduction in bacterial load in kidney at 5 mg/kg pre-infected with bacteria for 1 hrs followed by continuous compound administration at 12 hrs intervals for 2 days (reference value: 6.75 log10CFU/g). Conditions: time 2 day. Format: functional.

Experiment [6] relates to Staphylococcus aureus. Briefly: Antibacterial activity against methicillin-resistant Staphylococcus aureus ATCC 43300 infected in sepsis mouse model assessed as reduction in bacterial load in spleen at 5 mg/kg pre-infected with bacteria for 1 hrs followed by continuous compound administration at 12 hrs intervals for 2 days (reference value: 7.45 log10CFU/g). Conditions: time 2 day. Format: functional.

Experiment [7] has as its system Staphylococcus aureus. Briefly: Antibacterial activity against methicillin-resistant Staphylococcus aureus ATCC 43300 infected in sepsis mouse model assessed as reduction in number of surviving bacterial colonies in blood at 5 mg/kg pre-infected with bacteria for 1 hrs followed by continuous compound administration at 12 hrs intervals for 2 days relative to control. Conditions: time 2 day. Type of experiment: functional.

Experiment [8] concerns Staphylococcus aureus. Kind of experiment: Antibacterial activity against methicillin-resistant Staphylococcus aureus ATCC 43300 infected in sepsis mouse model assessed as reduction in number of surviving bacterial colonies in liver at 5 mg/kg pre-infected with bacteria for 1 hrs followed by continuous compound administration at 12 hrs intervals for 2 days relative to control. Type of experiment: functional. Conditions: time 2 day.

Experiment [9] has as its system Staphylococcus aureus. Briefly: Antibacterial activity against methicillin-resistant Staphylococcus aureus ATCC 43300 infected in sepsis mouse model assessed as reduction in number of surviving bacterial colonies in spleen at 5 mg/kg pre-infected with bacteria for 1 hrs followed by continuous compound administration at 12 hrs intervals for 2 days relative to control. Conditions: time 2 day. Format: functional.

The subject of experiment [10] is Staphylococcus aureus. Briefly: Antibacterial activity against methicillin-resistant Staphylococcus aureus ATCC 43300 infected in sepsis mouse model assessed as reduction in number of surviving bacterial colonies in kidney at 5 mg/kg pre-infected with bacteria for 1 hrs followed by continuous compound administration at 12 hrs intervals for 2 days relative to control. Conditions: time 2 day. Format: functional.

The test system of experiment [11] is Staphylococcus aureus. Briefly: Antibacterial activity against methicillin-resistant Staphylococcus aureus ATCC 43300 infected in sepsis mouse model assessed as reduction in pathological damages in liver at 5 mg/kg pre-infected with bacteria for 1 hrs followed by continuous compound administration at 12 hrs intervals for 2 days by H and E staining based analysis. Format: functional, organism-based. Conditions: time 2.0 day.

For experiment [12], the system named is Staphylococcus aureus. Briefly: Antibacterial activity against methicillin-resistant Staphylococcus aureus ATCC 43300 infected in sepsis mouse model assessed as reduction in pathological damages in kidney at 5 mg/kg pre-infected with bacteria for 1 hrs followed by continuous compound administration at 12 hrs intervals for 2 days by H and E staining based analysis. Conditions: time 2.0 day. Format: functional, organism-based.

Experiment [13] concerns Staphylococcus aureus. Kind of experiment: Antibacterial activity against methicillin-resistant Staphylococcus aureus ATCC 43300 infected in sepsis mouse model assessed as reduction in pathological damages in spleen at 5 mg/kg pre-infected with bacteria for 1 hrs followed by continuous compound administration at 12 hrs intervals for 2 days by H and E staining based analysis. Format: functional, organism-based. Conditions: time 2.0 day.

In the case of `CN[C@H](CC(C)C)C(=O)N[C@H]1C(=O)N[C@@H](CC(N)=O)C(=O)N[C@H]2C(=O)N[C@H]3C(=O)N[C@H](C(=O)N[C@H](C(=O)O)c4cc(O)cc(O)c4-c4cc3ccc4O)[C@H](O)c3ccc(c(Cl)c3)Oc3cc2cc(c3O[C@@H]2O[C@H](CO)[C@@H](O)[C@H](O)[C@H]2O[C@H]2C[C@](C)(N)[C@H](O)[C@H](C)O2)Oc2ccc(cc2Cl)[C@H]1O` [VANCOMYCIN], the result with Staphylococcus aureus [1], with Staphylococcus aureus [2], in the experiment on Staphylococcus aureus [11], with Staphylococcus aureus [12] and in the experiment on Staphylococcus aureus [13] was Active. Moreover, the MIC with Bacillus subtilis is 0.5 µg/mL (≈ 0.345 µM); in the experiment with Enterococcus faecalis it was 2 µg/mL (≈ 1.38 µM); with Klebsiella pneumoniae, 128 µg/mL (≈ 88.3 µM); against Acinetobacter baumannii it was 16 µg/mL (≈ 11 µM); in the experiment on Escherichia coli it was 128 µg/mL (≈ 88.3 µM); against Pseudomonas aeruginosa, more than 128 µg/mL. Besides, the Activity worked out at 1.5 log10CFU/ml with Staphylococcus aureus [3]; 2.7 log10CFU/g in the experiment with Staphylococcus aureus [4]; 2.73 log10CFU/g in the experiment with Staphylococcus aureus [5]; 2.33 log10CFU/g in the experiment on Staphylococcus aureus [6]; 96.5% in the experiment on Staphylococcus aureus [7]; 99.8% in the experiment with Staphylococcus aureus [8]. Also, the Activity is listed as 99.6% with Staphylococcus aureus [9] and 99.8% in the experiment with Staphylococcus aureus [10].
